System: 422866-222-R5-J1-PDC complex spheroids viability
Assay: Anticancer human tumor 422866-222-R5-J1-PDC patient-derived pancreatic adenocarcinoma cell line growth inhibition [RAS]
Conditions: for IC50: curve of first compound; for viability, T/C: stronger effect = lower value
In short: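 Multi-cell-type spheroids: tumor cells plus HUVEC endothelial cells and mesenchymal stem cells. RAS-pathway inhibitors were combined with targeted agents, each dosed in half-log steps down from clinical Cmax, or from 10 microM when Cmax was unknown.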

[1] = second compound 0.000949 µM, first compound 0.0316 µM
[2] = second compound 0.000949 µM, first compound 0.1 µM
[3] = second compound 0.000949 µM, first compound 0.316 µM
[4] = second compound 0.000949 µM, first compound 1 µM
[5] = second compound 0.000949 µM, first compound 3.16 µM
[6] = second compound 0.000949 µM, first compound 10 µM
[7] = second compound 0.003 µM, first compound 0.0316 µM
[8] = second compound 0.003 µM, first compound 0.1 µM
[9] = second compound 0.003 µM, first compound 0.316 µM
[10] = second compound 0.003 µM, first compound 1 µM
[11] = second compound 0.003 µM, first compound 3.16 µM
[12] = second compound 0.003 µM, first compound 10 µM
[13] = second compound 0.00949 µM, first compound 0.0316 µM
[14] = second compound 0.00949 µM, first compound 0.1 µM
[15] = second compound 0.00949 µM, first compound 0.316 µM
[16] = second compound 0.00949 µM, first compound 1 µM
[17] = second compound 0.00949 µM, first compound 3.16 µM
[18] = second compound 0.00949 µM, first compound 10 µM
[19] = second compound 0.03 µM, first compound 0.0316 µM
[20] = second compound 0.03 µM, first compound 0.1 µM
[21] = second compound 0.03 µM, first compound 0.316 µM
[22] = second compound 0.03 µM, first compound 1 µM
[23] = second compound 0.03 µM, first compound 3.16 µM
[24] = second compound 0.03 µM, first compound 10 µM
[25] = second compound 0.0949 µM, first compound 0.0316 µM
[26] = second compound 0.0949 µM, first compound 0.1 µM
[27] = second compound 0.0949 µM, first compound 0.316 µM
[28] = second compound 0.0949 µM, first compound 1 µM
[29] = second compound 0.0949 µM, first compound 3.16 µM
[30] = second compound 0.0949 µM, first compound 10 µM
[31] = second compound 0.3 µM, first compound 0.0316 µM
[32] = second compound 0.3 µM, first compound 0.1 µM
[33] = second compound 0.3 µM, first compound 0.316 µM
[34] = second compound 0.3 µM, first compound 1 µM
[35] = second compound 0.3 µM, first compound 3.16 µM
[36] = second compound 0.3 µM, first compound 10 µM
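Note: spheroids exposed to compounds for 7 days.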
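Throughout, for viability, T/C: 100% = DMSO vehicle control viability.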

`C=CC(=O)Nc1cc(Nc2nccc(-c3cn(C)c4ccccc34)n2)c(OC)cc1N(C)CCN(C)C` + C#Cc1c(F)ccc2cc(O)cc(-c3ncc4c(N5CC6CCC(C5)N6)nc(OCC56CCCN5CC(F)C6)nc4c3F)c12 was tested, and the IC50 (second compound 0.0316 µM) was over 1000 nM, the IC50 (second compound 0.1 µM) was over 1000 nM and the IC50 (second compound 0.316 µM) was 94.2 nM. The IC50 (second compound 1 µM) was under 3.16 nM, the IC50 (second compound 3.16 µM) was under 3.16 nM and the IC50 (second compound 10 µM) was under 3.16 nM. The viability, T/C (second compound 0.0316 µM, first compound 0.00316 µM) was 83.7%, the viability, T/C (second compound 0.0316 µM, first compound 0.01 µM) was 97.5% and the viability, T/C (second compound 0.0316 µM, first compound 0.0316 µM) was 85.8%. For the same molecule, the viability, T/C (second compound 0.0316 µM, first compound 0.1 µM) was 74%, the viability, T/C (second compound 0.0316 µM, first compound 0.316 µM) was 66% and the viability, T/C (second compound 0.0316 µM, first compound 1 µM) was 57.7%. The viability, T/C (second compound 0.1 µM, first compound 0.00316 µM) was 74.5%, the viability, T/C (second compound 0.1 µM, first compound 0.01 µM) was 91.4% and the viability, T/C (second compound 0.1 µM, first compound 0.0316 µM) was 68.9%. It also gave a viability, T/C (second compound 0.1 µM, first compound 0.1 µM) of 58.2%, a viability, T/C (second compound 0.1 µM, first compound 0.316 µM) of 62.6% and a viability, T/C (second compound 0.1 µM, first compound 1 µM) of 50.2%. The viability, T/C (second compound 0.316 µM, first compound 0.00316 µM) was 72.4%, the viability, T/C (second compound 0.316 µM, first compound 0.01 µM) was 69.8% and the viability, T/C (second compound 0.316 µM, first compound 0.0316 µM) was 47.7%. For the same molecule, the viability, T/C (second compound 0.316 µM, first compound 0.1 µM) was 56.5%, the viability, T/C (second compound 0.316 µM, first compound 0.316 µM) was 42.2% and the viability, T/C (second compound 0.316 µM, first compound 1 µM) was 40.2%. For the same molecule, the viability, T/C (second compound 1 µM, first compound 0.00316 µM) was 50.9%, the viability, T/C (second compound 1 µM, first compound 0.01 µM) was 44.5% and the viability, T/C (second compound 1 µM, first compound 0.0316 µM) was 34.1%. For the same molecule, the viability, T/C (second compound 1 µM, first compound 0.1 µM) was 35.9%, the viability, T/C (second compound 1 µM, first compound 0.316 µM) was 33.8% and the viability, T/C (second compound 1 µM, first compound 1 µM) was 31.6%. The viability, T/C (second compound 3.16 µM, first compound 0.00316 µM) was 33.6%, the viability, T/C (second compound 3.16 µM, first compound 0.01 µM) was 32.9% and the viability, T/C (second compound 3.16 µM, first compound 0.0316 µM) was 27.6%. It also gave a viability, T/C (second compound 3.16 µM, first compound 0.1 µM) of 23.7%, a viability, T/C (second compound 3.16 µM, first compound 0.316 µM) of 26.4% and a viability, T/C (second compound 3.16 µM, first compound 1 µM) of 22.4%. It also gave a viability, T/C (second compound 10 µM, first compound 0.00316 µM) of 23.2%, a viability, T/C (second compound 10 µM, first compound 0.01 µM) of 20.7% and a viability, T/C (second compound 10 µM, first compound 0.0316 µM) of 22.2%. The viability, T/C (second compound 10 µM, first compound 0.1 µM) was 22.1%, the viability, T/C (second compound 10 µM, first compound 0.316 µM) was 19.9% and the viability, T/C (second compound 10 µM, first compound 1 µM) was 19.6%.

In the case of `CC(C)NCC(C(=O)N1CCN(c2ncnc3c2C(C)CC3O)CC1)c1ccc(Cl)cc1` (stereo unspecified) + CCn1c(-c2cccnc2C(C)OC)c2c3cc(ccc31)N1CCOC(CC(NC(=O)C(C(C)C)N(C)C(=O)C3(F)CCN(C(=O)C#CC(C)(C)N(C)C)CC3)C(=O)N3CCCC(N3)C(=O)OCC(C)(C)C2)C1, the IC50 (second compound 0.000949 µM) is reported as under 31.6 nM, the IC50 (second compound 0.003 µM) is reported as under 31.6 nM and the IC50 (second compound 0.00949 µM) is reported as under 31.6 nM. It also gave an IC50 (second compound 0.03 µM) of under 31.6 nM, an IC50 (second compound 0.0949 µM) of under 31.6 nM and an IC50 (second compound 0.3 µM) of under 31.6 nM. For the same molecule, the viability, T/C [1] was 23%, the viability, T/C [2] was 23.2% and the viability, T/C [3] was 17.5%. For the same molecule, the viability, T/C [4] was 25%, the viability, T/C [5] was 30.9% and the viability, T/C [6] was 29.7%. The viability, T/C [7] was 22.5%, the viability, T/C [8] was 17.6% and the viability, T/C [9] was 14.4%. It also gave a viability, T/C [10] of 14.7%, a viability, T/C [11] of 14.4% and a viability, T/C [12] of 16.7%. For the same molecule, the viability, T/C [13] was 21.1%, the viability, T/C [14] was 18.9% and the viability, T/C [15] was 13.8%. It also gave a viability, T/C [16] of 13.3%, a viability, T/C [17] of 14.8% and a viability, T/C [18] of 14.6%. For the same molecule, the viability, T/C [19] was 17.5%, the viability, T/C [20] was 16% and the viability, T/C [21] was 12.9%. For the same molecule, the viability, T/C [22] was 12.1%, the viability, T/C [23] was 14.2% and the viability, T/C [24] was 16.2%. For the same molecule, the viability, T/C [25] was 15.2%, the viability, T/C [26] was 12% and the viability, T/C [27] was 11.8%. The viability, T/C [28] was 13.2%, the viability, T/C [29] was 15.3% and the viability, T/C [30] was 14.1%. For the same molecule, the viability, T/C [31] was 13.8%, the viability, T/C [32] was 13.4% and the viability, T/C [33] was 11.3%. It also gave a viability, T/C [34] of 11.4%, a viability, T/C [35] of 14.7% and a viability, T/C [36] of 11.6%.

`CC(C)NCC(C(=O)N1CCN(c2ncnc3c2C(C)CC3O)CC1)c1ccc(Cl)cc1` (stereo unspecified) + CCn1c(-c2cc(N3CCN(C)CC3)cnc2C(C)OC)c2c3cc(ccc31)-c1csc(n1)CC(NC(=O)C1CC1C)C(=O)N1CCCC(N1)C(=O)OCC(C)(C)C2 gave an IC50 (second compound 0.000949 µM) of under 31.6 nM, an IC50 (second compound 0.003 µM) of under 31.6 nM and an IC50 (second compound 0.00949 µM) of under 31.6 nM. For the same molecule, the IC50 (second compound 0.03 µM) was under 31.6 nM, the IC50 (second compound 0.0949 µM) was under 31.6 nM and the IC50 (second compound 0.3 µM) was under 31.6 nM. The viability, T/C [1] was 29.7%, the viability, T/C [2] was 25.9% and the viability, T/C [3] was 20.5%. The viability, T/C [4] was 21.1%, the viability, T/C [5] was 27.7% and the viability, T/C [6] was 33.9%. It also gave a viability, T/C [7] of 25.2%, a viability, T/C [8] of 20.6% and a viability, T/C [9] of 17.4%. The viability, T/C [10] was 13.4%, the viability, T/C [11] was 17.8% and the viability, T/C [12] was 17.7%. The viability, T/C [13] was 20.4%, the viability, T/C [14] was 15.2% and the viability, T/C [15] was 14.7%. It also gave a viability, T/C [16] of 11.6%, a viability, T/C [17] of 14.1% and a viability, T/C [18] of 15.7%. It also gave a viability, T/C [19] of 20.1%, a viability, T/C [20] of 15.8% and a viability, T/C [21] of 14.9%. For the same molecule, the viability, T/C [22] was 11.9%, the viability, T/C [23] was 11.9% and the viability, T/C [24] was 13.8%. For the same molecule, the viability, T/C [25] was 16.5%, the viability, T/C [26] was 17.4% and the viability, T/C [27] was 13.1%. For the same molecule, the viability, T/C [28] was 11.7%, the viability, T/C [29] was 12.4% and the viability, T/C [30] was 13.8%. The viability, T/C [31] was 18.8%, the viability, T/C [32] was 19.6% and the viability, T/C [33] was 14.2%. It also gave a viability, T/C [34] of 11.5%, a viability, T/C [35] of 12.9% and a viability, T/C [36] of 13.8%.
